Tests used:
[1] = system: HCT116 human colon cancer xenograft; assay: Subcutaneous HCT116 human colon cancer xenograft model; assay type: in vivo, Mus Musculus (BALB/c nude)
Protocol: Each mouse was inoculated subcutaneously with 5×10^6 HCT116 tumor cells in 0.1 ml PBS for tumor development. Treatments were started when the tumor volume reached 100 mm^3. […] Body weight and tumor volume were measured twice a week.

[2] = Toxicity study (MTD) in normal mice; assay type: in vivo, C3H female normal mice; conditions: single i.p. injection, mice checked daily for 40 days (MTD40)
Protocol: In the toxicity studies, 2 C3H female normal mice were dosed with compounds N1-4 (N1, N2, N3, and N4) at low and moderate doses of 40 and 100 mg/kg. Since no severe and irreversible toxicity occurred at these doses, a new pair of animals was initiated at 120 mg/kg which was 1.2 times higher than 100 mg/kg. Sequential dosages (ie. 2 mice for each drug dose) were increased by a factor of 1.2-1.5 until irreversible toxicity was observed (animal became emaciated; animal underwent rapid weight loss (cachexia) (20%) within several (2-4) days)(euthanasia was required) occurred. Then another pair of animals was initiated at the highest nontoxic dosage, and successive dosages were increased by a factor of 1.15. […] Six mice were dosed at each dosage. If no irreversible toxicity occurred at the lower dosage and at least one with irreversible toxicity at the higher dose, then the lower dose was considered to be the MTD. HCL salts of N1-4 were formulated in a solution of ethanol:Cremophor EL:0.2M NaAc:saline (5:5:10:80) with a final pH of 5.0-5.5. N1-4 bases were formulated in a solution of ethanol: Cremophor EL:saline (5:5:90). All compounds were administered to C3H female normal mice by a single i.p. injection at a volume of 0.5 ml/20 g mouse. Drug toxicity was evaluated on mice checked daily for 40 days. The toxicity parameters reported were the MTD40. […] At the end of experiment, all mice were euthanized.

[3] = Toxicity studies (MTD) in Cynomolgus monkeys; assay type: in vivo
[4] = system: COLO205 human colon cancer xenograft; assay: Subcutaneous COLO205 human colon cancer xenograft model; assay type: in vivo, Mus Musculus (BALB/c nude); conditions: 125 mg/kg i.p. q3d×3, day 29
Protocol: Each mouse was inoculated subcutaneously with 5×10^6 COLO205 tumor cells in 0.1 ml PBS for tumor development. Treatments were started when the tumor volume reached 120 mm^3. […] Body weight and tumor volume were measured twice a week.

Rat MTD study = assay type: in vivo, Sprague-Dawley rats
Protocol: In the rat MTD study, Sprague-Dawley rats were dosed with 801 HCl at a concentration of 6 mg/ml via intravenous infusion or slow intravenous injection. The MTD of 801 in normal rats was 120 mg/kg/day. In the 7-day repeating dose study, the rats were administered with […] via BID slow IV injection for 7 days.

[5] = system: K562 human chronic myeloid leukemia xenograft; assay: Subcutaneous K562 human chronic myeloid leukemia xenograft model; conditions: 300 mg/kg ip Days 8, 11, 14
[6] = system: H23 Human Non-small Cell Lung Cancer Cells; assay: Colony formation assay, H23; assay type: cell-based; conditions: 50% inhibition of colony formation; 72 hours with drug; colonies counted after 15 days
Protocol: (§1) Cancer cells were plated in 60 mm Petri dishes containing 2.7 ml of medium (modified McCoy's 5a medium containing 10% fetal bovine serum and 100 units/ml penicillin and 100 ug/ml streptomycin). The cells were incubated in a CO2 incubator at 37 degree C. for 5 hours for attachment to the bottom of Petri dishes. Drugs were made up fresh in medium at ten times the final concentration, and then 0.3 ml of this stock solution was added to the 2.7 ml of medium in the dish. The cells were then incubated with drugs for 72 hours at 37 degree C. At the end of incubation the drug-containing media were decanted, the dishes were rinsed with 4 ml of Hank's Balance Salt Solution (HBSS), 5 ml of fresh medium was added, and the dishes were returned to the incubator for colony formation. The cell colonies were counted using colony counter after incubation for 7 days (HCT116 cell line), 14 days (VM46 cell line) and 15 days (H23 cell line). Cell survival (%) was calculated from 3 repeated dishes for each drug concentration and the mean values of IC50 (the drug concentration producing 50% inhibition of colony formation) were determined for each tested compound.

[7] = system: HCT116 Human Colon Cancer Cells; assay: Colony formation assay, HCT116; assay type: cell-based; conditions: 50% inhibition of colony formation; 72 hours with drug; colonies counted after 7 days
Protocol: as §1

[8] = system: VM46 Human Colon Cancer Cells Overexpressing Multi-drug Resistant Gene 1; assay: Colony formation assay, VM46; assay type: cell-based; conditions: 50% inhibition of colony formation; 72 hours with drug; colonies counted after 14 days
Protocol: as §1

CC[C@@]1(OC(=O)COc2ccc(C(=O)O[C@H]3c4cc5c(cc4[C@@H](c4cc(OC)c(OC)c(OC)c4)[C@H]4C(=O)OC[C@@H]43)OCO5)cc2)C(=O)OCc2c1cc1n(c2=O)Cc2cc3cc(OC(=O)N4CCC(N5CCCCC5)CC4)ccc3nc2-1.Cl [Compound 801-HCl]
TGI ([1]; 125 mg/kg i.p. q3d×3, day 29): 93% | MTD Values [2]: 300 mg/kg | MTD for repeating dosing ([3]; 5-day repeat dose, intravenous infusion): 30 mg/kg/day | MTD ([3]; intravenous infusion twice daily with a 5-hour interval): 60 mg/kg/day | TGI [4]: 70% | MTD (Rat MTD study; 6 mg/ml via intravenous infusion or slow intravenous injection, normal rats): 120 mg/kg/day | TGI (Day 25) [5]: 98% | Mean Tumor Volume ([5]; Day 8 after tumor inoculation): 159 ± 6 mm^3 | Mean Tumor Volume ([5]; Day 11): 221 ± 27 mm^3 | Mean Tumor Volume ([5]; Day 14): 164 ± 6 mm^3 | Mean Tumor Volume ([5]; Day 18): 47 ± 7 mm^3 | Mean Tumor Volume ([5]; Day 21): 39 ± 6 mm^3 | Mean Tumor Volume ([5]; Day 25): 74 ± 12 mm^3 | Mean Tumor Volume ([5]; Day 25, listed as 801-HCI): 74 ± 2 mm^3 | Mean Tumor Volume ([5]; Day 28): 95 ± 19 mm^3 | CR ratio (ratio of complete regression) ([5]; complete remission by Day 21): 3/8 | maximum BW loss ([5]; next day after the 2nd dosing): 7.7%

CCc1c2c(nc3ccc(O)c(CN(C)C)c13)-c1cc3c(c(=O)n1C2)COC(=O)C3(CC)OC(=O)COc1ccc(C(=O)OC2c3cc4c(cc3C(c3cc(OC)c(OC)c(OC)c3)C3C(=O)OCC23)OCO4)cc1 (stereo not drawn) [Compound N4]
IC50 [6]: 12.9 nM | IC50 [7]: 6.6 nM | MTD Values [2]: 250 mg/kg | IC50 [8]: 5 nM

CCc1c2c(nc3ccc(OC(=O)N4CCC(N5CCCCC5)CC4)cc13)-c1cc3c(c(=O)n1C2)COC(=O)[C@]3(O)CC [Irinotecan, reference compound]
body weight loss ([1]; during the treatment period, doses of the study groups): 8%

CCC1(OC(=O)COc2ccc(C(=O)OC3c4cc5c(cc4C(c4cc(OC)c(OC)c(OC)c4)C4C(=O)OCC34)OCO5)cc2)C(=O)OCc2c1cc1n(c2=O)Cc2cc3c(CN(C)C)c(O)ccc3nc2-1.Cl (stereo not drawn) [N1 HCL Salt]
MTD Values [2]: 120 mg/kg

CC[C@@]1(OC(=O)COc2ccc(C(=O)O[C@H]3c4cc5c(cc4[C@@H](c4cc(OC)c(OC)c(OC)c4)[C@H]4C(=O)OC[C@@H]43)OCO5)cc2)C(=O)OCc2c1cc1n(c2=O)Cc2cc3cc(OC(=O)N4CCC(N5CCCCC5)CC4)ccc3nc2-1 [N2 (801)]
IC50 [6]: 462 nM | IC50 [7]: > 500 nM | MTD Values [2]: 300 mg/kg | IC50 [8]: ~520 nM | MTD for repeating dosing (Rat MTD study; 7-day repeating dose, BID slow IV injection): 60 mg/kg/day

CCc1c2c(nc3ccc(OC(=O)N4CCC(N5CCCCC5)CC4)cc13)-c1cc3c(c(=O)n1C2)COC(=O)C3(CC)OC(=O)COc1ccc(C(=O)OC2c3cc4c(cc3C(c3cc(OC)c(OC)c(OC)c3)C3C(=O)OCC23)OCO4)cc1.Cl (stereo not drawn) [N3 HCL Salt]
MTD Values [2]: 144 mg/kg

CCc1c2c(nc3ccc(O)c(CN(C)C)c13)-c1cc3c(c(=O)n1C2)COC(=O)C3(CC)OC(=O)COc1ccc(C(=O)OC2c3cc4c(cc3C(c3cc(OC)c(OC)c(OC)c3)C3C(=O)OCC23)OCO4)cc1.Cl (stereo not drawn) [N4 HCL Salt]
MTD Values [2]: 180 mg/kg

From patent US11186594B2, “Podophyllotoxin derivatives and their use” (California Pacific Medical Center, priority 2015, dated 2021)
